Consider 16 compounds from paper PMC8457121, “From Kinase Inhibitors to Multitarget Ligands as Powerful Drug Leads for Alzheimer's Disease using Protein‐Templated Synthesis” (Angewandte Chemie (International Ed. in English), 2021).

Data set [1] is described as follows: PAMPA-BBB test. Format: in vitro ADME. The settings on record: for Papp at 2.5 h / Pe exp / CNS prediction: PAMPA-BBB; for Papp at 2.5 h / Pe exp: PBS pH 7.4/DMSO 95/5, 2.5 h, room temperature; for Papp at 2.5 h: read-out: Pe exp; for Solubility in the conditions of the PAMPA experiment: PBS pH 7.4 with 5% DMSO.
Description: CNS penetration: in vitro PAMPA-BBB test. Prediction of the brain penetration was evaluated using a parallel artificial membrane permeability assay (PAMPA).1
Nine quality control compounds (mentioned below) of know BBB permeability
were included in each experiment to validate the analysis set.2 Commercial drugs
dissolved in 250 µL of DMSO (Sigma-Aldrich). 25 µL of these compound stock
solutions were taken and 225 µL of DMSO and 4750 µL of PBS pH 7.4 buffer
were added to reach 5% of DMSO concentration in the experiment and a final
compound concentration in the range of 0.2 to 1.1 mM. Compounds to be
µL of DMSO and 4750 µL of PBS pH 7.4 was carefully added to afford a final
compound concentration in the range of 0.2 to 1.1 mM. Solutions were filtered
using filter PDVF membrane units (diameter 30 mm, pore size 0.45 μm, Symta).
10 µL of each solution were taken and diluted 10-fold with PBS/DMSO (95/5) for
HPLC-MS analysis. The acceptor 96-well plate (Multiscreen®, catalog no.
MAMCS9610, Millipore) was filled with 180 µL of PBS/DMSO (95/5). The donor
96-well plate (Multiscreen® IP Sterile Plate PDVF membrane, pore size is 0.45
M, catalog no. MAIPS4510, Millipore) was coated with 4 µL 20 mg·mL-1 of
for 5 min and then 180 µL of each compound solution was added. Then the donor
plate was put on the acceptor plate and kept for 2.5 h at room temperature. After
incubation, samples were collected from the acceptor plate and diluted 10-fold
with PBS/DMSO (95/5) for HPLC-MS analysis and compared to HPLC-MS of
initial solutions. Absorbance peak of each compound was determined by MS
detection and was used to calculate the concentration of compounds and
Every sample was analysed in two independent
runs. HPLC-MS was performed using a HPLC-MS equipment from Thermo
Fisher coupled to a Finnigan TM LXQ TM detector. Each compound was
analysed using a Sunfire column C18, 3.5 μm (50 mm x 4.6 mm) and acetonitrile
and Milli-Q water (with 0.1% formic acid) as mobile phase. The standard gradient
The target in data set [2] is BACE1 (Homo sapiens, UniProt P56817). The experiment in a line: BACE1 enzymatic assay (FRET). The format is biochemical. The following applies: for inhibition at 10 µM: read-out: BACE1 enzyme inhibition at 10 μM.
Chain of BACE1 (P56817 46-501): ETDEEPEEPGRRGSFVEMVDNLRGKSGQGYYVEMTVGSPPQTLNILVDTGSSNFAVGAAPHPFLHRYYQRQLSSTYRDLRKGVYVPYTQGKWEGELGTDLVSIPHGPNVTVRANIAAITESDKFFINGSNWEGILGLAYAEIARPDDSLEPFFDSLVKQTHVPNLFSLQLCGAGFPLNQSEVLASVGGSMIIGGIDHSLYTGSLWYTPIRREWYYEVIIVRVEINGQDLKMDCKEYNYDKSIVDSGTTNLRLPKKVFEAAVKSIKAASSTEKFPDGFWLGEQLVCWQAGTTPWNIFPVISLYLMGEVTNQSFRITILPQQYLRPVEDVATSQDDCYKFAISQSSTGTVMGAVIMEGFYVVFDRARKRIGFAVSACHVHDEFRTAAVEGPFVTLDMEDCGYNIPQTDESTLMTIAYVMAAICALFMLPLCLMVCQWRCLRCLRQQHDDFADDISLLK
Description: BACE1 enzymatic assay. BACE1 in vitro assays were carried out using FRET.
μM) carrying the Swedish mutation and containing a rhodamine as a fluorescence donor and a quencher acceptor at each end was used. The intact substrate is weakly fluorescent and becomes highly fluorescent upon enzymatic cleavage.
The assays were conducted in 50 mM sodium acetate buffer, pH 4.5, in a final
The target of data set [3] is CK1δ (Homo sapiens, UniProt P48730). Description: CK1δ inhibition enzymatic assay (Kinase-Glo). The format is biochemical. The settings on record: for inhibition at 10 µM: read-out: CK1δ enzyme inhibition at 10 μM. Here is the method: CK1δ inhibition enzymatic assay. The “Kinase-Glo” Kit from Promega was used to screen compounds for activity against CK1δ Kinase-Glo assays were performed in assay buffer using black 96-well plates. In a typical assay, 10 μl of test compound (dissolved in DMSO at 1 mM concentration and diluted in advance in assay buffer to the desired concentration) 10 μl (16 ng) of enzyme were added to each well followed by 20 µl of assay buffer containing 0,1 % casein as substrate […]
Chain of CK1δ (P48730 whole entry): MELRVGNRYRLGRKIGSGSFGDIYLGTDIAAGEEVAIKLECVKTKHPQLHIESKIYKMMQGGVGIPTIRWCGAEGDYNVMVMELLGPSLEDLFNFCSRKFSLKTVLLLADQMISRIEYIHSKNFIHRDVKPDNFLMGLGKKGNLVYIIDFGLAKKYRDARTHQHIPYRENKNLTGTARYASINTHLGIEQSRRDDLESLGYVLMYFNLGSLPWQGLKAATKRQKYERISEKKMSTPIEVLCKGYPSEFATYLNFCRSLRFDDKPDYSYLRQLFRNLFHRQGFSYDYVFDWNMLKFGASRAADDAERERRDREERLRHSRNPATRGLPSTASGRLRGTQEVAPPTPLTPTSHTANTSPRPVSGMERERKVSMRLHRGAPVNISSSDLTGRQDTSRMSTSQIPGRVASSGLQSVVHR
exceed 1%. After 60-min incubation at 30°C the enzymatic reaction was stopped […]
with 40 μl of Kinase-Glo reagent. Glow-type luminescence was recorded after 10 min using a FLUOstar Optima (BMG Labtechnologies GmbH, Offenburg, Germany) multimode reader. The activity is proportional to the difference of the total and consumed ATP. The inhibitory activities were calculated on the basis of maximal activities measured in the absence of inhibitor. The IC50 was defined as the concentration of each compound that reduces a 50% the enzymatic activity with respect to that without inhibitors. […]
Ibérica SAU). Kinase-Glo Luminescent Kinase Assay was obtained from Promega (Promega Biotech Ibérica, SL). ATP and all other reagents were from Sigma Aldrich (St. Louis, MO). Assay buffer contained 50 mM HEPES (pH 7.5), 1 mM EDTA, 1 mM EGTA, and 15 mM magnesium acetate. […]
Background: In Kinase-Glo more light means more ATP remaining.

Data set [4] addresses T1, Human recombinant GSK3β (Homo sapiens, UniProt P49841).
T1 construct: purchased Millipore (Millipore Ibérica SAU)
Description: GSK3β inhibition enzymatic assay (Kinase-Glo). The format is biochemical. Here is the method:
GSK3β inhibition enzymatic assay. Human recombinant GSK3β and the pre-phosphorylated polypeptide substrate were purchased from Millipore (Millipore Ibérica SAU). Kinase-Glo Luminescent Kinase Assay was obtained from Promega (Promega Biotech Ibérica, SL). ATP and all other reagents were from Sigma Aldrich (St. Louis, MO). Assay buffer contained 50 mM HEPES (pH 7.5), 1 mM EDTA, 1 mM EGTA, and 15 mM magnesium acetate.
Kinase-Glo assays were performed in assay buffer using black 96-well plates. In a typical assay, 10 μL (10 μM) of test compound (dissolved in DMSO) at 1 mM concentration and diluted in advance in assay buffer to the desired concentration) and 10 μL (20 ng) of enzyme were added to each well followed by 20 μL of assay buffer containing 25 μM substrate and 1 μM ATP. The final DMSO concentration […]
After 30 min incubation at 30 °C, the enzymatic reaction was stopped with 40 μL of Kinase-Glo reagent. Glow-type luminescence was recorded after 10 min using a FLUOstar Optima (BMG
Labtechnologies GmbH, Offenburg, Germany) multimode reader. The activity is proportional to the difference of the total and consumed ATP. The inhibitory activities were calculated based on maximal activities measured in the absence of inhibitor. The IC50 was defined as the concentration of each compound that reduces a 50 % the enzymatic activity with respect to that without inhibitors. […]

On the set-up of data set [5]: method as in earlier work. The following applies: PAMPA-BBB reported permeability ref 2; cited from earlier work. For orientation: PAMPA measures passive passage across an artificial lipid membrane.
Data set [6] deals with T2, LRRK2 (Homo sapiens, UniProt Q5S007).
T2 construct: purchased ThermoFisher (assay run by the company)
T2 sequence (Q5S007 whole entry): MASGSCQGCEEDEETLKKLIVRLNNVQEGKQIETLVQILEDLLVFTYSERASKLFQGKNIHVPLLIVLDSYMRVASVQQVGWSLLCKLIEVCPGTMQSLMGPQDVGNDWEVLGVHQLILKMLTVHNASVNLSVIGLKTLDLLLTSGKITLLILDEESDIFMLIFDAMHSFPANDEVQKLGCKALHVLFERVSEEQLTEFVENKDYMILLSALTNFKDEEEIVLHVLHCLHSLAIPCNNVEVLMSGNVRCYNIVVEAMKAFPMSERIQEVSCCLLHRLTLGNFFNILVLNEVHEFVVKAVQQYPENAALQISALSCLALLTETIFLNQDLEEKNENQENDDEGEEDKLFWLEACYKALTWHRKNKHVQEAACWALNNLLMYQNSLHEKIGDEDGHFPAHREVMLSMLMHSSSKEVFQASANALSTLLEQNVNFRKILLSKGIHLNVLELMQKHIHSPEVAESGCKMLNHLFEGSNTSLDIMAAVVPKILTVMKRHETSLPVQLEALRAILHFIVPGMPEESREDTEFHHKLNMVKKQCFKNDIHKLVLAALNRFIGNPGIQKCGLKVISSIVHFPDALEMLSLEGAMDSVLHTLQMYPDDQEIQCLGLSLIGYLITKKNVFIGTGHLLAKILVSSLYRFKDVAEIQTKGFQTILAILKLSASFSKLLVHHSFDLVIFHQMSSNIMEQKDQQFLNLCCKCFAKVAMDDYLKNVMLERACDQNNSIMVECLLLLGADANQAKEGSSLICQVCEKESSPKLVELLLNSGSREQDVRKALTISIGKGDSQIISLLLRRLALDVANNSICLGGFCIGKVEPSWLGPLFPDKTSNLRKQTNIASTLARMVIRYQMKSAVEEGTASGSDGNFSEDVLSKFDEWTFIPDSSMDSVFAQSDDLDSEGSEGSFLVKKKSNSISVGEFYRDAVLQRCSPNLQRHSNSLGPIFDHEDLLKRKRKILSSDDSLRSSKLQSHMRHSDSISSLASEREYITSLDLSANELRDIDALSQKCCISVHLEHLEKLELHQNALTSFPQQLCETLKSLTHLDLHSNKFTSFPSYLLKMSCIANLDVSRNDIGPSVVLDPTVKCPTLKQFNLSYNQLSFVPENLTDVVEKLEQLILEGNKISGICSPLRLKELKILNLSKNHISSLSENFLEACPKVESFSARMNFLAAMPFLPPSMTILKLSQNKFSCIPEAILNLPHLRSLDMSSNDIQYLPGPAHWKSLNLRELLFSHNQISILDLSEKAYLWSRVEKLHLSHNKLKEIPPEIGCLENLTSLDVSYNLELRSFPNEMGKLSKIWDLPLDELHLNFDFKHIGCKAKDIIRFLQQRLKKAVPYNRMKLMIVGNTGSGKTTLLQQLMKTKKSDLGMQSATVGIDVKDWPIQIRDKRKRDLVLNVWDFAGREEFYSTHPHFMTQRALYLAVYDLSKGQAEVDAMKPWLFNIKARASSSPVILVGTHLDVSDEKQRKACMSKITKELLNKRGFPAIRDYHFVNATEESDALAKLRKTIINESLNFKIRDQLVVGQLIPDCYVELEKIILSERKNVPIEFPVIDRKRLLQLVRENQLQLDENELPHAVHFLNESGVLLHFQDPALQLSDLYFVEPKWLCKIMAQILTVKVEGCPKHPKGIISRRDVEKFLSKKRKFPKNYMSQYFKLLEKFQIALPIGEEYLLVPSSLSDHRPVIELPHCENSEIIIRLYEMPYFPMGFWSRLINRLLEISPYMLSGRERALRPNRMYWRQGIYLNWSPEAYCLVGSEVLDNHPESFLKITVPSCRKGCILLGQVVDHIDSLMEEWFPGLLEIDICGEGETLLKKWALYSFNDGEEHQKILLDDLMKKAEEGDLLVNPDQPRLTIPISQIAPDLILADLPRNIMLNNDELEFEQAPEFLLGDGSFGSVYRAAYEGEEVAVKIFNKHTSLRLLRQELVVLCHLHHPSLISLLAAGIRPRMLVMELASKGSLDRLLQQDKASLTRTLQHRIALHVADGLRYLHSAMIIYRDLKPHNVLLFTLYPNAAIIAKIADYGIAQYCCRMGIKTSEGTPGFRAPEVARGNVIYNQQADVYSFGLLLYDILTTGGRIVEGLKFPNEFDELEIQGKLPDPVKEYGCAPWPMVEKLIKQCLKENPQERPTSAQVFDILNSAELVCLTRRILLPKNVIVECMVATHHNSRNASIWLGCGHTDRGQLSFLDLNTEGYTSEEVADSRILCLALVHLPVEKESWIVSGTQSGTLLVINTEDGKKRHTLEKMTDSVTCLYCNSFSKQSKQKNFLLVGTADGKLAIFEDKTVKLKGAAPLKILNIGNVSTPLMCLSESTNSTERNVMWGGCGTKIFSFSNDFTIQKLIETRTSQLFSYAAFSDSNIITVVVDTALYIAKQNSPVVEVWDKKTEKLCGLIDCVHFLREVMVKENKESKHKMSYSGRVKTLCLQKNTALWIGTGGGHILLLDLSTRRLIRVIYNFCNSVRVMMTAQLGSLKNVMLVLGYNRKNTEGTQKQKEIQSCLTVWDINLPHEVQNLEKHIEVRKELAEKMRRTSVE
Description: LRRK2 inhibition enzymatic assay (Adapta, ThermoFisher). The format is biochemical. The following applies: for inhibition at 10 µM: read-out: LRRK2 enzyme inhibition at 10 μM.

Data set [7] relates to SK-APP cells. The experiment in a line: Cell viability (MTT) in SK-APP cells. Format: cell-based, human. The following applies: 10 μM, 48 hours. Here is the method:
page 35: enzyme concentration (1 U/mL). Inhibitor screening at 10 μM. The mixture was incubated for 60 min at 25 °C under dark conditions and then stopped with 2.5 M sodium acetate. Fluorescence was measured with a FLUOstar Optima (BMG Labtechnologies GmbH, Offenburg, Germany) microplate reader at 545 nm excitation and 585 nm emission. Evaluation of BACE Inhibitors Kinetics. To evaluate the mechanism of BACE1 inhibition of the compounds, substrate-dependent kinetic experiments were performed. BACE activity were measured at five different concentrations substrate (1000 -62,5 μM) in the absence or presence of the select inhibitor at two different concentrations. The results are presented as double reciprocal Lineweaver-Burk plots (1/V vs 1/[S]) Figure S1. Cell culture and treatments. […] The absorbance values were determined at 590 nm. Cell viability was expressed as a percent of OD of control cells, the value of which was defined as 100%. […] Absorbance was measured using a Varioskan Flash multiplate reader (Thermo Scientific) at test 550 nm and reference 664 nm wave-lengths. […] Levels of Aβ40 and Aβ42 were quantified by sandwich ELISAs (Wako, Osaka, Japan) from cellular lysates and conditioned media collected. […] Compounds to be determined their ability to pass the brain barrier (0.5-1 mg) were dissolved in 250 μL of DMSO and 4750 μL of PBS pH 7.4 was carefully added to afford a final […]

T1 sequence (P49841 whole entry): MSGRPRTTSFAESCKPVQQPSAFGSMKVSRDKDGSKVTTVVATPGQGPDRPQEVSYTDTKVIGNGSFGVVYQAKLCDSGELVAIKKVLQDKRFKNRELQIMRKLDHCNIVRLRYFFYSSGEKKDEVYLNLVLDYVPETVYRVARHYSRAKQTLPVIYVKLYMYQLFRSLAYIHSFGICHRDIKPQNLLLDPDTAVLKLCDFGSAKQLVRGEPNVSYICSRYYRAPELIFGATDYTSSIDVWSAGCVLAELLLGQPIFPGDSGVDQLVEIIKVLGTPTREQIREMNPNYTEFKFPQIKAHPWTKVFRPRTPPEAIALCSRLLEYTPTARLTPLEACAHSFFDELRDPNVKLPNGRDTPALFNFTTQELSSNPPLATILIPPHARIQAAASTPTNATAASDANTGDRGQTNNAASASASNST

On to `Cn1c(=O)c2c(ncn2C)n(C)c1=O` [Caffeine, caffeine, reference compound], for which, in data set [1], the Papp at 2.5 h is 1.45 ± 0.26 ×10⁻⁶ cm/s.
As for `CNCCCN1c2ccccc2CCc2ccccc21` [Desipramine, desipramine, reference compound], the Papp at 2.5 h in data set [1] was 7.44 ± 0.9 ×10⁻⁶ cm/s.
Regarding `CCn1cc(C(=O)O)c(=O)c2cc(F)c(N3CCNCC3)nc21` [Enoxacine, enoxacine, reference compound], the Pe exp in data set [1] was 1.41 ± 0.05 10-6 cm s-1.
As a reminder, the IC50 is the midpoint of a concentration-inhibition curve. Take `O=C(Cc1ccccc1)Nc1nc2ccccc2s1` [MBC-858, reference compound]: the IC50 is over 20 µM in data set [2] and 0.33 ± 0.03 µM in data set [3].
As to `CCn1sc(=O)n(Cc2ccccc2)c1=O` [MBC-2138, reference compound], the figures for the IC50 in data set [2] and in data set [4] were over 20 µM and 0.53 ± 0.03 µM, respectively.
As for `CN1C(C(=O)Nc2ccccn2)=C(O)c2ccccc2S1(=O)=O` [Piroxicam, piroxicam, reference compound], the “Pe Bibl.” value in data set [5] was 2.5 10-6 cm s-1. For the same compound, in data set [1], the Papp at 2.5 h worked out at 2.92 ± 0.37 ×10⁻⁶ cm/s.
As for `CN(C)CCCN1c2ccccc2Sc2ccccc21` [Promazine, promazine, reference compound], in data set [5], the “Pe Bibl.” value is recorded as 8.8 10-6 cm s-1. Besides, the Papp at 2.5 h in data set [1] was 5.18 ± 0.43 ×10⁻⁶ cm/s.
As to `O=C(Nc1nc2ccccc2s1)c1ccc(CSCCCSCc2ccc(C(=O)Nc3nc4ccccc4s3)cc2)cc1` [compound 3], the figures for the IC50 in data set [2] and in data set [6] were 7.14 µM and 1.88 µM, respectively.
`O=C(Cc1ccc(Cn2cc(COc3ccc(/N=C4\C(=O)Nc5ccccc54)cc3)nn2)cc1)Nc1nc2ccccc2s1` [compound 16]: the IC50 in data set [2] is 7.24 ± 0.38 µM; in data set [6], 13.5 ± 5.23 µM; in data set [3], 6.47 ± 0.68 µM. For the same compound, in data set [7], the “Cell viability of SK-APP cells” value is “significant decrease”. The CNS prediction result in data set [1] is on record as “CNS+/CNS- (CNS+/CNS‐ (yellow) for compounds with Pe between both values)”. Moreover, in data set [1], the Papp at 2.5 h was 3.07 ± 0.25 ×10⁻⁶ cm/s.
By inhibition is commonly meant the share of the control response that was lost under treatment. Turning to `O=C(Cc1ccc(Cn2cc(COc3ccc(C(=O)Nc4nc5ccccc5s4)cc3)nn2)cc1)Nc1nc2ccccc2s1` [compound 17], the IC50 in data set [2] stood at 2.51 ± 0.43 µM; in data set [6] it was 7.09 ± 2.22 µM. In data set [7], the “Cell viability of SK-APP cells” value was “significant decrease”. Further, the inhibition at 10 µM in data set [3] is 26%. Moreover, the “Solubility in the conditions of the PAMPA experiment” value in data set [1] is “insoluble”.
Regarding `O=C(Cc1ccc(OCc2cn(Cc3ccc(C(=O)Nc4nc5ccccc5s4)cc3)nn2)cc1)Nc1nc2ccc(C(F)(F)F)cc2s1` [compound 28], the IC50 in data set [2] came to 7.21 ± 0.35 µM; in data set [6], 0.71 ± 0.26 µM; in data set [3], 0.4 ± 0.06 µM. The CNS prediction result in data set [1] is listed as “CNS- (CNS‐ (red) for compounds with Pe <1.88×10^−6 cm s^−1)”. Further, the Papp at 2.5 h in data set [1] is 0.65 ± 0.18 ×10⁻⁶ cm/s.
For the compound `COc1ccc2nc(NC(=O)Cc3ccc(OCc4cn(CCc5ccc(C(=O)Nc6nc7ccccc7s6)cc5)nn4)cc3)sc2c1` [compound 29], the half-inhibitory concentration (IC50) in data set [2] amounted to 11 ± 1.36 µM; in data set [6], 0.44 ± 0.1 µM; in data set [3], 12.6 ± 0.7 µM. In addition, the CNS prediction result in data set [1] was “CNS- (CNS‐ (red) for compounds with Pe <1.88×10^−6 cm s^−1)”. Moreover, in data set [1], the Pe exp is 0 10-6 cm s-1.
A word on the melting point: it is the temperature of the solid-liquid transition. As for `O=C(Cc1ccc(OCc2cn(CCc3ccc(C(=O)Nc4nc5ccccc5s4)cc3)nn2)cc1)Nc1nc2ccccc2s1` [compound 30], the melting point fell in the range of 239 to 240 °C. Further, the IC50 in data set [2] amounted to 8.57 ± 0.45 µM. Also, the IC50 in data set [6] is 3.19 ± 1.01 µM. The inhibition at 10 µM in data set [3] worked out at 30%. For the same compound, in data set [1], the CNS prediction result is “CNS+ (CNS+ (green) for compounds with Pe >3.20×10^−6 cm s^−1)” and the Papp at 2.5 h amounted to 3.58 ± 0.12 ×10⁻⁶ cm/s.
Take `CCOC(=O)c1sc(NC(=O)Cc2ccc(OCc3cn(Cc4ccc(CC(=O)Nc5nc6ccccc6s5)cc4)nn3)cc2)nc1C` [compound 31]: the IC50 in data set [2] amounted to 6.76 ± 0.61 µM; in data set [3], 5.4 ± 0.91 µM. Moreover, the “Solubility in the conditions of the PAMPA experiment” value in data set [1] was “insoluble”. In data set [4] (read-out: GSK3β enzyme inhibition at 10 μM), the inhibition at 10 µM was 26%.
For `O=C1Nc2ccccc2/C1=N/c1ccc(OCc2cn(Cc3ccc(C(=O)Nc4nc5ccccc5s4)cc3)nn2)cc1` [compound 32], the results for the inhibition at 10 µM in data set [2] and in data set [6] were under 20% and 54%, respectively.
With `O=C(Nc1nc2ccccc2s1)c1ccc(CCn2cc(COc3ccc(C(=O)Nc4nc5ccccc5s4)cc3)nn2)cc1` [compound 33], the inhibition at 10 µM in data set [2] was under 20%; in data set [6], 98%.
